Laboratory results: US20190315711A1 (eXIthera Pharmaceuticals, Inc., priority 2016, published 2019)

Tests used:
Thrombin = molecular target: T1, Thrombin (Homo sapiens, UniProt P00734); assay: Dose response assay for protease inhibitors: thrombin; assay type: biochemical; details: ratio versus Factor XIa
T1 construct: Thrombin; 0.2 μM in 50% glycerol (7.34 μg/mL)

[1] = Metabolic stability in dog hepatocytes; assay type: in vitro ADME; details: pooled cryopreserved hepatocytes; beagle dog hepatocytes, 2 μM compound, 500,000 cells/mL, 37° C.; read-out: Dog Hepatocyte Stability (T½: min)
Protocol: The following procedure was used to determine the stability of test compounds in beagle dog hepatocytes in a 96-well plate format. The test compounds, including the controls, imipramine and 7-ethoxycoumarin, were dissolved at 10 mM in DMSO, followed by further 5-fold dilution with DMSO to 2 mM. Pooled cryopreserved beagle dog hepatocytes were thawed and transferred into complete medium. Cells were gently centrifuged (700 rpm for 5 min) and the pellet rinsed with KHB (Krebs Henseleit buffer). Cells were resuspended, counted using Trypan blue, and adjusted to 1 million cells/mL in KHB buffer. The 2 mM compound stock solutions were diluted 10-fold with acetonitrile, followed by a further 50-fold dilution with KHB buffer. 200 μL of these compound solutions were transferred to 96-well polypropylene assay plates and an equal volume of the hepatocyte solution was added and mixed to initiate the reaction (final assay concentrations were 2 μM compound and 500,000 cells/mL). Assay plates were incubated at 37° C. in 5% CO2 with gentle agitation. 50 μL aliquots were removed at multiple time points out to 180 minutes and quenched with 6 volumes of cold acetonitrile (containing 250 ng/mL of carbutamide and chrysin as internal standards) to terminate the reaction and precipitate protein. Quenched samples were maintained on ice. The quenched samples were centrifuged at 2000×g (3100 rpm) for 10 minutes at 4° C. 50 μL aliquots of the supernatants were removed and diluted with 100 μL Milli-Q water to reduce the % organic content prior to bioanalysis by LC-MS/MS. Peak areas corresponding to the test compound were recorded. The compound remaining was calculated by comparing the peak area at each time point to time zero. Data were analyzed and results were calculated using Microsoft Excel 2010.

[2] = Plasma protein binding by equilibrium dialysis; assay type: in vitro ADME; details: both sexes, pooled plasma, pH 7.4, human plasma protein binding, read-out: PPB
Protocol: The following procedure was used to determine the plasma protein binding of a test compound in pooled plasma from human (mixed gender) via equilibrium dialysis in a 96-well plate format. The dialysate compartment was loaded with phosphate-buffered saline (pH 7.4) and the sample side was loaded with plasma spiked with the test compound at a concentration of 10 μM. After loading, samples were covered and incubated for 4 hours at 37° C. After incubation, each compartment was sampled, diluted with acetonitrile/buffer and centrifuged. The supernatants were analyzed by HPLC-MS/MS. The analyte peak areas obtained from HPLC-MS/MS analysis of each sample were used to calculate protein binding according to the following equation (Equation 4):
where: AREAp=Peak area of analyte in protein matrix; AREAb=Peak area of analyte in buffer. The amount measured in the plasma compartment included both free and bound drug, while that on the buffer side represented free drug only; the differences were used to calculate the percentage plasma protein bound. Three reference compounds were tested in each assay: acebutolol, quinidine and warfarin.

human Factor XIa = human Factor XIa (Homo sapiens, UniProt P03951); assay: Factor XIa enzyme inhibition assay (dose response, fluorogenic AMC substrate); assay type: biochemical; design: Enzyme: Factor XIa; details: purified enzyme; substrate 50 μM, enzyme 0.25 nM; read-out: hFXIa IC50
human Factor XIa, sequence (P03951 388-625 limits assumed): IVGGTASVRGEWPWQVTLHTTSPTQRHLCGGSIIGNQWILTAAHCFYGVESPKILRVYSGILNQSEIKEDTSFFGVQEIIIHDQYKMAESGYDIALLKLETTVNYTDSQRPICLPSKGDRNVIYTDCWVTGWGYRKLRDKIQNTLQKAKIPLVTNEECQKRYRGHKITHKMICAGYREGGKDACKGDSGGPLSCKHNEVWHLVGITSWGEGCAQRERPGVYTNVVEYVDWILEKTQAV
human Factor XIa, sequence (P03951 19-387 partner limits assumed): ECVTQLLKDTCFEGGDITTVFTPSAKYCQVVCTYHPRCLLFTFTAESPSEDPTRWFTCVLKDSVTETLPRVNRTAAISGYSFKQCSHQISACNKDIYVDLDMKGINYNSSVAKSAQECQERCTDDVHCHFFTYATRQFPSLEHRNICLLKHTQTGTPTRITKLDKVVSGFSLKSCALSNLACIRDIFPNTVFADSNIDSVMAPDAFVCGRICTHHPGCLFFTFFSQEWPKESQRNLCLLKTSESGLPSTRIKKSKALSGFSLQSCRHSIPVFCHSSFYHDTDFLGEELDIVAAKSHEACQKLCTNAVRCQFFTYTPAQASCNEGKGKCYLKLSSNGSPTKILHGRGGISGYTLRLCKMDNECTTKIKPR
In short: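 Fluorogenic assay in 20 mM Hepes pH 7.4, 150 mM NaCl, 0.02% Tween 20 with 0.25 nM enzyme and 50 μM Glp-Pro-Arg-AMC (final). Fluorescence read every minute for 30 min at 30 °C after serial two-fold compound dilution; IC50 from four-parameter Hill fit of dose-response curves.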

Which “Ratio: Thrombin/FXIa” value (Thrombin) does the source give for CC[C@@H](NC(=O)N1C(=O)[C@H](Cc2ccnc(N)c2)[C@H]1C(=O)N(C)c1ccncc1)c1ccccc1 [Compound 42] here?
Its value is “H (“H” indicates 101-1000)”.

And the half-life at 2 μM [1]?
The half-life at 2 μM was 2.02 to 4 h.

And the fraction unbound at 4 h, 10 μM [2]?
The fraction unbound at 4 h, 10 μM was 0.1 to 0.5.

What about the IC50 (human Factor XIa) of the same molecule?
The IC50 was under 10 nM.

What does the source list for CC[C@@H](NC(=O)N1C(=O)[C@H](Cc2ccnc(N)c2)[C@H]1C(=O)N(C)c1ccncc1)c1cccc(C#N)c1 [Compound 99]?
Ratio: Thrombin/FXIa (Thrombin): H (“H” indicates 101-1000); half-life at 2 μM [1]: > 4 h; fraction unbound at 4 h, 10 μM [2]: 0.1 to 0.5; IC50 (human Factor XIa): < 10 nM

For CC[C@@H](NC(=O)N1C(=O)[C@H](Cc2ccnc(N)c2)[C@H]1C(=O)N(C)c1ncccn1)c1ccccc1 [Compound 84], which “Ratio: Thrombin/FXIa” value (Thrombin) is on record?
The value was “I (“I” indicates >500)”.

And the half-life at 2 μM [1]?
The half-life at 2 μM was 1.02 to 2 h.

And the fraction unbound at 4 h, 10 μM [2]?
The fraction unbound at 4 h, 10 μM was 0.1 to 0.5.

And the IC50 (human Factor XIa)?
Its IC50 is under 10 nM.

What does the source list for CC[C@@H](NC(=O)N1C(=O)[C@H](Cc2ccnc(N)c2)[C@H]1C(=O)N(C)c1ncncn1)c1ccccc1 [Compound 83]?
Ratio: Thrombin/FXIa (Thrombin): I (“I” indicates >500); half-life at 2 μM [1]: < 1 h; fraction unbound at 4 h, 10 μM [2]: 0.1 to 0.5; IC50 (human Factor XIa): < 10 nM

Which results are given for CC[C@@H](NC(=O)N1C(=O)[C@H](Cc2ccnc(N)c2)[C@H]1C(=O)N(C)c1ccccc1)c1cccnc1 [Compound 44]?
Ratio: Thrombin/FXIa (Thrombin): G (“G” indicates 1-100); half-life at 2 μM [1]: 2.02 to 4 h; fraction unbound at 4 h, 10 μM [2]: 0.1 to 0.5; IC50 (human Factor XIa): < 10 nM

Which “Ratio: Thrombin/FXIa” value (Thrombin) does the source give for C[C@@H](NC(=O)N1C(=O)[C@H](Cc2ccnc(N)c2)[C@H]1C(=O)N(C)c1ccccc1)C1CCCCC1 [Compound 49] here?
Its value is “H (“H” indicates 101-1000)”.

And the half-life at 2 μM [1]?
Its half-life at 2 μM is under 1 h.

What about the fraction unbound at 4 h, 10 μM [2] of the same molecule?
Its fraction unbound at 4 h, 10 μM is 0.05 to 0.09.

And the IC50 (human Factor XIa)?
Its IC50 is under 10 nM.

Which “Ratio: Thrombin/FXIa” value (Thrombin) does the source give for CN(C(=O)[C@@H]1[C@@H](Cc2ccnc(N)c2)C(=O)N1C(=O)N[C@@H](C1CC1)C(F)(F)F)c1ccncc1 [Compound 77] here?
The value was “H (“H” indicates 101-1000)”.

What about the half-life at 2 μM [1] of the same molecule?
The half-life at 2 μM was 2.02 to 4 h.

And the fraction unbound at 4 h, 10 μM [2]?
The fraction unbound at 4 h, 10 μM was under 0.5.

What about the IC50 (human Factor XIa) of the same molecule?
Its IC50 is 10 to 100 nM.

Which “Ratio: Thrombin/FXIa” value (Thrombin) does the source give for CC[C@@H](NC(=O)N1C(=O)[C@H](Cc2ccnc(NC(=O)OC(C)(C)C)c2)[C@H]1C(=O)N(C)c1ccncc1)c1cccc(Cl)c1 [Compound 127] here?
Its value is “H (“H” indicates 101-1000)”.

What about the half-life at 2 μM [1] of the same molecule?
The half-life at 2 μM was under 1 h.

And the fraction unbound at 4 h, 10 μM [2]?
The fraction unbound at 4 h, 10 μM was under 0.05.

What about the IC50 (human Factor XIa) of the same molecule?
Its IC50 is 10 to 100 nM.

With CC[C@@H](NC(=O)N1C(=O)[C@H](Cc2ccnc(N)c2)[C@H]1C(=O)N(C)c1ccncc1)C1CCCCC1 [Compound 25] as the molecule, how does the “Ratio: Thrombin/FXIa” value (Thrombin) read?
Its value is “I (“I” indicates >500)”.

And the half-life at 2 μM [1]?
The half-life at 2 μM was 2.02 to 4 h.

What about the fraction unbound at 4 h, 10 μM [2] of the same molecule?
The fraction unbound at 4 h, 10 μM was 0.1 to 0.5.

And the IC50 (human Factor XIa)?
Its IC50 is under 10 nM.

What does the source list for CC[C@@H](NC(=O)N1C(=O)[C@H](Cc2ccnc(N)c2)[C@H]1C(=O)N(C)c1ncncn1)C1CCCCC1 [Compound 81]?
Ratio: Thrombin/FXIa (Thrombin): H (“H” indicates 101-1000); half-life at 2 μM [1]: < 1 h; fraction unbound at 4 h, 10 μM [2]: < 0.05; IC50 (human Factor XIa): < 10 nM

Which “Ratio: Thrombin/FXIa” value (Thrombin) does the source give for CC[C@@H](NC(=O)N1C(=O)[C@H](Cc2ccnc(N)c2)[C@H]1C(=O)N(C)c1ccncc1)c1ccc(Cl)cc1 [Compound 89] here?
Its value is “H (“H” indicates 101-1000)”.

And the half-life at 2 μM [1]?
The half-life at 2 μM was over 4 h.

What about the fraction unbound at 4 h, 10 μM [2] of the same molecule?
Its fraction unbound at 4 h, 10 μM is 0.05 to 0.09.

What about the IC50 (human Factor XIa) of the same molecule?
Its IC50 is under 10 nM.
